Assays:
[1] = target: T1, butyrylcholinesterase (BChE) (Equus caballus, UniProt P81908); experiment: Anticholinesterase assay (Ellman's), BChE inhibition; format: biochemical, equine
T1 construct: butyrylcholinesterase (BChE, obtained from equine serum); from tissue; host or cells: equine serum
Description: (§1) This enzyme method relied on the hydrolytic of acetyl cholinethioiodide (ATChI) by acetylcholinesterase and butyrylthiocholine iodide (BTchI) by butyrylcholinesterase. As a result of this breakdown, 5-thio-2-nitrobenoate anions formed. […] The absorption was measured with a spectrophotometer, as per the protocols. […] An amount of 0.1 M phosphate buffer (8.0 ± 0.1 pH) solution was prepared, whose final pH was adjusted by using the KOH solution.
(§2) In this assay, 50 µL enzyme solution and 50 µL DTNB reagent were added to 1 mL test samples in a cuvette and then incubated at 30 °C for 15 min. Afterward, a 50 µL substrate solution was added to the mixture.

[2] = target: T2, human recombinant 5-LOX (Homo sapiens, UniProt P09917); experiment: biochemical
T2 sequence (P09917 1-674): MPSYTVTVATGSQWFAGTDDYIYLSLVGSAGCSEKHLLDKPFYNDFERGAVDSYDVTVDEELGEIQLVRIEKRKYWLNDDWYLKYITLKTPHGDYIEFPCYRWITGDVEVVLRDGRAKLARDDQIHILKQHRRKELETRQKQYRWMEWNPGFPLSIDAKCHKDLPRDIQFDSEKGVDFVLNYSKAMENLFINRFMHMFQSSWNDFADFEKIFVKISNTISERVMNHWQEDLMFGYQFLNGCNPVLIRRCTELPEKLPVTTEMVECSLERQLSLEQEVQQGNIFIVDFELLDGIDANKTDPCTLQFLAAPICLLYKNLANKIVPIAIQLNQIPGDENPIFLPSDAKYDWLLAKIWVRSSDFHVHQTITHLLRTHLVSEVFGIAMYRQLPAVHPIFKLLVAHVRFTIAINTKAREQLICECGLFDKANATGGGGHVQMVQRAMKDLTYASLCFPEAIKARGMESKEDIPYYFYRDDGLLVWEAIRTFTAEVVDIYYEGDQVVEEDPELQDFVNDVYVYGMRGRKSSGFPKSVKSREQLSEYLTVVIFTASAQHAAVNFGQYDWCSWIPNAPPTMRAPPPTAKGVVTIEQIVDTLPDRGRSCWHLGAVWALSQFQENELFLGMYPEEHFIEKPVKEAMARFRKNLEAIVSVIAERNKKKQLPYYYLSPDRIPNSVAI
Description: The lipoxygenase assay on our test compounds was performed by utilizing human recombinant 5-LOX [65]. […] The enzyme solution with a concentration of 10,000 U/mL was prepared, whereas 80 mM linoleic acid solution was used as a substrate. Solutions were prepared in a phosphate buffer (50 mM) with a pH of 6.3, which was also utilized as the blank. To start, various concentrations of our test samples were dissolved in 0.25 mL of the buffer, to which 0.25 mL enzyme solution was added and incubated at 25 °C for 5 min. Afterward, the substrate solution (0.1 mL) was added to the mixture and shaken well. […] In this assay, the standard drug was montelukast, and using the following formula, the % inhibitions were calculated: % enzyme inhibition=X−X1/X×100 where X = absorbance of the negative control (with no test sample), and X1 = absorbance of the test compound.

[3] = target: T3, COX-2 (Homo sapiens, UniProt P35354); experiment: biochemical
T3 sequence (P35354 18-604): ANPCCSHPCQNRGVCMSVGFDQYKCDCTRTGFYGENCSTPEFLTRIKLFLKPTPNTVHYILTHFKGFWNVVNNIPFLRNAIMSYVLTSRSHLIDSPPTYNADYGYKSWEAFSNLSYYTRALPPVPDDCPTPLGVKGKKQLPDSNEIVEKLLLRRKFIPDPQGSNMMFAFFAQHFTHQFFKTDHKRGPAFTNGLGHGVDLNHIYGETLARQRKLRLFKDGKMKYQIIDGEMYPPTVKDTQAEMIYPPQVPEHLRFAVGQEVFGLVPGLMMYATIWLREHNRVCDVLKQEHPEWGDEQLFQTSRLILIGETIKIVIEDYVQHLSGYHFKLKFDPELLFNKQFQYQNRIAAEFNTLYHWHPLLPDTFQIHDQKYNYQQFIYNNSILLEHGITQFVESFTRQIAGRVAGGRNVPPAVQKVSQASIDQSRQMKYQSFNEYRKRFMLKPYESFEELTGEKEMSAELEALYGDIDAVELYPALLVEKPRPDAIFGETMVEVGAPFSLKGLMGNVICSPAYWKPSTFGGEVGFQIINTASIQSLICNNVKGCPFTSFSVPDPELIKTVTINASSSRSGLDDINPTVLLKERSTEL
Description: (§3) The Cyclooxygenase enzymes (COX-1 and 2) inhibitory potential of our test compounds was determined according to the previously reported procedure. […] The enzyme solutions with a concentration of 0.7–0.8 μg/10 μL (COX-1) and 300 U/mL (COX-2) were prepared. To start the assay, for enzyme activation, 10 µL enzyme solution (kept in a cool temperature of 4 °C for 5 min) and cofactor containing hematin (50 µL, 1 mM), glutathione (0.9 mM) and TMPD in a Tris-buffer (0.1 M) with a pH 8.0 was added. After that, 60 µL of the enzyme solution was added to 20 µL of the test samples of various concentrations and incubated at room temperature for 5 to 10 min. Then, 20 µL of arachidonic acid (30 mM) was added to start the reaction. The mixture was then again incubated for 15 min at 37 °C, and absorbances were measured at 570 nm with UV-visible spectrophotometer. […] The % enzyme inhibitions were calculated by using the previously reported formula.

[4] = target: COX-1 (Homo sapiens, UniProt P23219); experiment: biochemical; conditions: read-out: % COX-1 Inhibition
Description: as §3

[5] = target: T4, acetylcholinesterase (AChE) (Electrophorus electricus, UniProt O42275); experiment: Anticholinesterase assay (Ellman's), AChE inhibition; format: biochemical
T4 construct: acetylcholinesterase (AChE, obtained from Electrophorus electricus); from tissue
Description: as §1, §2

T1 sequence (P81908 whole entry): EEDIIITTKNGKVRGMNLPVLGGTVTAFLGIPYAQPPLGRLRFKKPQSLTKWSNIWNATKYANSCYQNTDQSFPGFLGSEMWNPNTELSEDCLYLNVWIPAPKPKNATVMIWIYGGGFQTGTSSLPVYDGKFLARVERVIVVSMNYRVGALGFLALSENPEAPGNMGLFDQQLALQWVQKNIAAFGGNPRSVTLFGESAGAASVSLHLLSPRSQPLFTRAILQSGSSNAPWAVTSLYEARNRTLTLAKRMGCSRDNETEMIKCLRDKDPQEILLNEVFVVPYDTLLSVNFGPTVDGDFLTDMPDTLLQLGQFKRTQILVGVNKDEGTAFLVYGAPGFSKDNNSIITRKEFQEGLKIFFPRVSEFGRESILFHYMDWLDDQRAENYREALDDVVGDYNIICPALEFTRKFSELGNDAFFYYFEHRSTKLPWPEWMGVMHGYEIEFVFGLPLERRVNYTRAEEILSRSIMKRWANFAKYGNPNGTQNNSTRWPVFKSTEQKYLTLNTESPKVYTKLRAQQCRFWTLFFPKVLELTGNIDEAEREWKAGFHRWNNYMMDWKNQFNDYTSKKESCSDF
Sequence of COX-1 (P23219 24-599): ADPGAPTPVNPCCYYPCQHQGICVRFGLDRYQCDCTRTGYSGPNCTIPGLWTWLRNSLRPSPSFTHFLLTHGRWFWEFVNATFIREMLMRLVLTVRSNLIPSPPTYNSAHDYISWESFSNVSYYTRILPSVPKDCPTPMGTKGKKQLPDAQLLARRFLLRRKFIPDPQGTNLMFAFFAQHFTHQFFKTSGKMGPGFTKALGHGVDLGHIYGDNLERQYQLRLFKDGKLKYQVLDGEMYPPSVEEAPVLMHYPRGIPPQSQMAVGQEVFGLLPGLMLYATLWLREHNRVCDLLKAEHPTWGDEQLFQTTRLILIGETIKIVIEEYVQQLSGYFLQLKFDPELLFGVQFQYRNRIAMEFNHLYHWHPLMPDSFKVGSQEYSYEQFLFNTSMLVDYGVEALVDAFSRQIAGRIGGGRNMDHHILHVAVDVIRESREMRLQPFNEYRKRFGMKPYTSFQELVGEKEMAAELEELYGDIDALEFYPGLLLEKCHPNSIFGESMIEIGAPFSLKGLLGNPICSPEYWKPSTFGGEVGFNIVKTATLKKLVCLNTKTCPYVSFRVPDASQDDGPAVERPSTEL
T4 sequence (O42275 24-633): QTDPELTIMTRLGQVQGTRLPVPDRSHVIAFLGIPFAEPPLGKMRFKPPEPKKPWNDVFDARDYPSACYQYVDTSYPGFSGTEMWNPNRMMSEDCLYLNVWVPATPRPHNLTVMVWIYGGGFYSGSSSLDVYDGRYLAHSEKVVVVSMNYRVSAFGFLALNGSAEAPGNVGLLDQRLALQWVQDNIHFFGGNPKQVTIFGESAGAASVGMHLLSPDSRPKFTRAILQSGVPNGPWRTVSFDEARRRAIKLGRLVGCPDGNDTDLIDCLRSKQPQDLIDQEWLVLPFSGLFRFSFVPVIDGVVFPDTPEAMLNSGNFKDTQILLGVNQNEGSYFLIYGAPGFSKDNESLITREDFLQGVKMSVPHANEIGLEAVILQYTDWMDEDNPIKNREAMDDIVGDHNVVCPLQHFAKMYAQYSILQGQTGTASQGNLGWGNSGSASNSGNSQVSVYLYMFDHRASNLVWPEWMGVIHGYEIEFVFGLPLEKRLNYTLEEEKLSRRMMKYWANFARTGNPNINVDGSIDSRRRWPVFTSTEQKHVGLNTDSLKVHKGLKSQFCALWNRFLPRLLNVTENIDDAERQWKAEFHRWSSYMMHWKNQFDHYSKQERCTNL

How did the IC50 [1] turn out when CCC(CCC(C)C1CCC2C3CCC4=CC(=O)CCC4(C)C3CCC12C)C(C)C (centres unmarked) [Compound 2, 17-(5-ethyl-6-methylheptan-2-yl)-10,13-dimethyl-1,2,6,7,8,9,10,11,12,13,14,15,16,17-tetradecahydro-3H-cyclopenta[a]phenanthren-3-one] was run?
The IC50 was 25.8 µM.

What about the “Percent BChE (mean ± SEM)” value ([1]; 62.5 μg/mL) of the same compound?
The value was 61.35 ± 0.18 %.

What about the “Percent BChE (mean ± SEM)” value ([1]; 125 μg/mL) of the same compound?
Its value is 66.20 ± 0.15 %.

What about the “Percent BChE (mean ± SEM)” value ([1]; 250 μg/mL) of the same compound?
The value was 73.42 ± 0.11 %.

What about the “Percent BChE (mean ± SEM)” value ([1]; 500 μg/mL) of the same compound?
The value was 78.62 ± 0.17 %.

And the “Percent BChE (mean ± SEM)” value ([1]; 1000 μg/mL)?
Its value is 83.53 ± 0.20 %.

What about the IC50 ([2]; read-out: 5-LOX IC50 (converted)) of the same compound?
Its IC50 is 21.1 µM.

What about the inhibition at 62.5 µg/mL ([2]; read-out: % 5-LOX Inhibition) of the same compound?
The inhibition at 62.5 µg/mL was 63.47 ± 0.56%.

What about the inhibition at 125 µg/mL ([2]; read-out: % 5-LOX Inhibition) of the same compound?
Its inhibition at 125 µg/mL is 67.74 ± 0.61%.

And the inhibition at 250 µg/mL ([2]; read-out: % 5-LOX Inhibition)?
The inhibition at 250 µg/mL was 73.67 ± 0.61%.

What about the inhibition at 500 µg/mL ([2]; read-out: % 5-LOX Inhibition) of the same compound?
Its inhibition at 500 µg/mL is 78.76 ± 0.58%.

And the inhibition at 1000 µg/mL ([2]; read-out: % 5-LOX Inhibition)?
Its inhibition at 1000 µg/mL is 85 ± 0.3%.

And the inhibition at 62.5 µg/mL ([3]; 62.50 μg/mL, read-out: % COX-2 Inhibition)?
The inhibition at 62.5 µg/mL was 61.9 ± 1.13%.

And the inhibition at 125 µg/mL ([3]; 125 μg/mL, read-out: % COX-2 Inhibition)?
Its inhibition at 125 µg/mL is 68.3 ± 0.64%.

What about the inhibition at 250 µg/mL ([3]; 250 μg/mL, read-out: % COX-2 Inhibition) of the same compound?
Its inhibition at 250 µg/mL is 73.34 ± 0.63%.

What about the inhibition at 500 µg/mL ([3]; 500 μg/mL, read-out: % COX-2 Inhibition) of the same compound?
The inhibition at 500 µg/mL was 78.3 ± 0.64%.

What about the inhibition at 1000 µg/mL ([3]; 1000 μg/mL, read-out: % COX-2 Inhibition) of the same compound?
The inhibition at 1000 µg/mL was 83.17 ± 0.72%.

What about the IC50 ([3]; read-out: COX-2 IC50 (converted)) of the same compound?
The IC50 was 20.5 µM.

What about the inhibition at 62.5 µg/mL [4] of the same compound?
The inhibition at 62.5 µg/mL was 32.5 ± 0.65%.

What about the inhibition at 125 µg/mL [4] of the same compound?
The inhibition at 125 µg/mL was 37.7 ± 0.45%.

And the inhibition at 250 µg/mL [4]?
The inhibition at 250 µg/mL was 44.86 ± 0.02%.

And the inhibition at 500 µg/mL [4]?
The inhibition at 500 µg/mL was 51.67 ± 0.11%.

What about the inhibition at 1000 µg/mL [4] of the same compound?
Its inhibition at 1000 µg/mL is 57.6 ± 1.18%.

What about the IC50 [5] of the same compound?
The IC50 was 35.2 µM.

What about the “AChE inhibition (%)” value ([5]; 62.5 μg/mL) of the same compound?
Its value is 58.12 ± 0.34 %.

And the “AChE inhibition (%)” value ([5]; 125 μg/mL)?
The value was 63.47 ± 0.49 %.

And the “AChE inhibition (%)” value ([5]; 250 μg/mL)?
Its value is 68.75 ± 0.14 %.

What about the “AChE inhibition (%)” value ([5]; 500 μg/mL) of the same compound?
The value was 75.59 ± 0.30 %.

And the “AChE inhibition (%)” value ([5]; 1000 μg/mL)?
Its value is 80.85 ± 0.18 %.

Source: publication PMC9599613 (Biomolecules, 2022)
